Here are results for 28 compounds from ChEMBL document CHEMBL1128307, “2-Aralkynyl and 2-heteroalkynyl derivatives of adenosine-5'-N-ethyluronamide as selective A2a adenosine receptor agonists” (J Med Chem, 1995).

In data set [1] the target is T1, Adenosine receptor A2a (Rattus norvegicus, UniProt P30543).
Description: Functional activity against adenosine A2a receptor from rat aorta.
The nature of data set [2]: Hydrophobicity index (k'') (RP-HPLC pH 7.5). The data set is classed as ADME.
In data set [3] the target is T1, Adenosine receptor A2a. The source holds these as a separate data set.
Data set [4] addresses T2, Adenosine receptor A1 (Rattus norvegicus, UniProt P25099).
T2 sequence (P25099 whole entry): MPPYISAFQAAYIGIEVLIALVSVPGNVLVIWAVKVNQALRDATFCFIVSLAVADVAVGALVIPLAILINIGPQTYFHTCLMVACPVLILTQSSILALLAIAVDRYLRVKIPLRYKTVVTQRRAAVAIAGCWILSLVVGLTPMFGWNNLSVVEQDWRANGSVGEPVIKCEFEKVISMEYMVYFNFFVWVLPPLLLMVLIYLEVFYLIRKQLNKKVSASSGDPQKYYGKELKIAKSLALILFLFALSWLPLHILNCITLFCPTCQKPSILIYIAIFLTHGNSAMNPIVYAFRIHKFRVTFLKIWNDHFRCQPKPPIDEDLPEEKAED
Briefly: Functional activity against adenosine A1 receptor from rat atria.

For data set [5], the target named is T2, Adenosine receptor A1.
Description: Binding affinity against adenosine A1 receptor from rat brain using [3H]CHA as a radioligand.

Bounds are passed on as bounds.

Broadly, the EC50 is the concentration giving half of the maximal effect. For orientation: Ki means the equilibrium dissociation constant of an inhibitor or competing ligand from its target. Read a low Ki as a stronger hold on the target.

T1 sequence (P30543 whole entry): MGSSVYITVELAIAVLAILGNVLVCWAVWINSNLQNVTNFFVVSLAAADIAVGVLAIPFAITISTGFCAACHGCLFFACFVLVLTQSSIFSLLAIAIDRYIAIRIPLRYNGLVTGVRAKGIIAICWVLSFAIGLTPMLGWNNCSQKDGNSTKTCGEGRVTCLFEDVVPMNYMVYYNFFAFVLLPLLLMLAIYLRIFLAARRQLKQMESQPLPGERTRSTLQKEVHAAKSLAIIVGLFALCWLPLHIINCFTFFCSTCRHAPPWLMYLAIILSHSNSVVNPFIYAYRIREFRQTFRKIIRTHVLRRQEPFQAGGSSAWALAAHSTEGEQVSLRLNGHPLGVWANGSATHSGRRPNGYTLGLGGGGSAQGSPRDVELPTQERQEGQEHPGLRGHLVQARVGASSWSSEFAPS

`C#Cc1nc(N)c2ncn([C@@H]3O[C@H](C(=O)NCC)[C@@H](O)[C@H]3O)c2n1`: the EC50 on Adenosine receptor A2a [1] was found to be 440 nM. Moreover, the “k'” value in data set [2] came to 0.25. In addition, the Ki at Adenosine receptor A2a [3] was determined as 57.8 nM.
On to `CCNC(=O)[C@H]1O[C@@H](n2cnc3c(N)nc(C#CCCCc4ccccc4)nc32)[C@H](O)[C@@H]1O`, for which the EC50 at Adenosine receptor A1 [4] is 6480 nM. The Ki worked out at 209 nM at Adenosine receptor A1 [5] and 1.2 nM on Adenosine receptor A2a [3]. Besides, the “k'” value in data set [2] is recorded as 5.82.
Regarding `CCNC(=O)[C@H]1O[C@@H](n2cnc3c(N)nc(C#Cc4ccccc4)nc32)[C@H](O)[C@@H]1O`, the EC50 was more than 10000 nM on Adenosine receptor A1 [4] and 1500 nM at Adenosine receptor A2a [1]. Moreover, the Ki came to 698 nM at Adenosine receptor A1 [5] and 120 nM on Adenosine receptor A2a [3]. Also, the “k'” value in data set [2] is reported as 2.04.
For `OC[C@H]1O[C@@H](n2cnc3c(NC4CCCC4)nc(Cl)nc32)[C@H](O)[C@@H]1O`, the “k'” value in data set [2] is 2.76.
`CCCCC#Cc1nc(N)c2ncn([C@@H]3O[C@H](C(=O)NCC)[C@@H](O)[C@H]3O)c2n1` had an EC50 at Adenosine receptor A2a [1] of 596 nM. For the same compound, the “k'” value in data set [2] is reported as 2.57.
As for `CCNC(=O)[C@H]1OC(n2cnc3c(N)nc(C#Cc4ccncc4)nc32)[C@H](O)[C@@H]1O` (stereo not given in full), the EC50 at Adenosine receptor A1 [4] and at Adenosine receptor A2a [1] was more than 10000 nM each time. Moreover, the inhibition constant (Ki) on Adenosine receptor A1 [5] is 428 nM; on Adenosine receptor A2a [3], 87 nM. In addition, the “k'” value in data set [2] is reported as 0.57.
`CCNC(=O)[C@H]1OC(n2cnc3c(N)nc(C#Cc4ccc(C=O)cc4)nc32)[C@H](O)[C@@H]1O` (stereo not given in full): the EC50 at Adenosine receptor A1 [4] was more than 10000 nM; at Adenosine receptor A2a [1] it was 110 nM. The values for the Ki at Adenosine receptor A1 [5] and at Adenosine receptor A2a [3] were 1000 nM and 6.3 nM, respectively. Moreover, in data set [2], the “k'” value was 1.02.
With `CCNC(=O)[C@H]1OC(n2cnc3c(N)nc(C#CCN4CCN(C)CC4)nc32)[C@H](O)[C@@H]1O` (stereo not given in full), the figures for the EC50 on Adenosine receptor A1 [4] and on Adenosine receptor A2a [1] were 877 nM and 408 nM, respectively. Also, the results for the Ki on Adenosine receptor A1 [5] and at Adenosine receptor A2a [3] were 35.9 nM and 19.1 nM, respectively. For the same compound, the “k'” value in data set [2] is listed as 0.42.
In the case of `CCNC(=O)[C@H]1OC(n2cnc3c(N)nc(C#Cc4cccnc4)nc32)[C@H](O)[C@@H]1O` (stereo not given in full), the EC50 at Adenosine receptor A1 [4] was 415 nM; on Adenosine receptor A2a [1] it was 491 nM. Further, the Ki was determined as 139 nM on Adenosine receptor A1 [5] and 234 nM at Adenosine receptor A2a [3]. Moreover, the “k'” value in data set [2] was 0.51.
In the same order, the values of `CCNC(=O)[C@H]1OC(n2cnc3c(N)nc(C#CCN4CCCCC4)nc32)[C@H](O)[C@@H]1O` (stereo not given in full) are 322 nM, 302 nM, 27.5 nM, 4.3 nM and 1.11.
In the same order, the values of `CCNC(=O)[C@H]1OC(n2cnc3c(N)nc(C#Cc4ccc(N)cc4)nc32)[C@H](O)[C@@H]1O` (stereo not given in full) are more than 10000 nM, 4070 nM, 599 nM, 113 nM and 0.46.
In the same order, the values of `CCNC(=O)[C@H]1OC(n2cnc3c(N)nc(C#CCN4CCSCC4)nc32)[C@H](O)[C@@H]1O` (stereo not given in full) are 306 nM, 223 nM, 52.8 nM, 5.9 nM and 0.66.
`CCNC(=O)[C@H]1OC(n2cnc3c(N)nc(C#Cc4ccc([N+](=O)[O-])cc4)nc32)[C@H](O)[C@@H]1O` (stereo not given in full): the EC50 is more than 10000 nM at Adenosine receptor A1 [4] and 1210 nM at Adenosine receptor A2a [1]. Moreover, the figures for the Ki at Adenosine receptor A1 [5] and on Adenosine receptor A2a [3] were 900 nM and 21.5 nM, respectively. In data set [2], the “k'” value came to 1.82.
As to `CCNC(=O)[C@H]1OC(n2cnc3c(N)nc(C#CCN4CCOCC4)nc32)[C@H](O)[C@@H]1O` (stereo not given in full), the EC50 at Adenosine receptor A1 [4] came to 358 nM; on Adenosine receptor A2a [1], 531 nM. Further, the values for the Ki on Adenosine receptor A1 [5] and at Adenosine receptor A2a [3] were 90.5 nM and 27.4 nM, respectively. In addition, in data set [2], the “k'” value is on record as 0.28.
As for `CCNC(=O)[C@H]1OC(n2cnc3c(N)nc(C#Cc4ccc(C(F)(F)F)cc4)nc32)[C@H](O)[C@@H]1O` (stereo not given in full), the Ki came out at 2430 nM at Adenosine receptor A1 [5] and 315 nM at Adenosine receptor A2a [3]. Further, the response at Adenosine receptor A2a [1] was half-maximal at 2990 nM (EC50). In data set [2], the “k'” value is on record as 5.79.
As for `CCNC(=O)[C@H]1OC(n2cnc3c(N)nc(C#CCc4ccccc4)nc32)[C@H](O)[C@@H]1O` (stereo not given in full), the figures for the EC50 at Adenosine receptor A1 [4] and on Adenosine receptor A2a [1] were 164 nM and 406 nM, respectively. Besides, the Ki on Adenosine receptor A1 [5] amounted to 27.4 nM; on Adenosine receptor A2a [3] it was 1.6 nM. In addition, the “k'” value in data set [2] was determined as 2.4.
Regarding `CCNC(=O)[C@H]1OC(n2cnc3c(N)nc(C#Cc4cccc(C=O)c4)nc32)[C@H](O)[C@@H]1O` (stereo not given in full), the figures for the EC50 on Adenosine receptor A1 [4] and on Adenosine receptor A2a [1] were more than 10000 nM and 3570 nM, respectively. Also, the Ki at Adenosine receptor A1 [5] was found to be 1440 nM; on Adenosine receptor A2a [3], 176 nM. Further, the “k'” value in data set [2] was determined as 1.06.
`CCNC(=O)[C@H]1OC(n2cnc3c(N)nc(C#Cc4ccco4)nc32)[C@H](O)[C@@H]1O` (stereo not given in full): the 50% effective concentration (EC50) at Adenosine receptor A1 [4] and at Adenosine receptor A2a [1] was more than 10000 nM in each case. Moreover, the Ki amounted to 310 nM on Adenosine receptor A1 [5] and 130 nM at Adenosine receptor A2a [3]. In addition, the “k'” value in data set [2] turned out to be 1.06.
Consider `CCNC(=O)[C@H]1OC(n2cnc3c(N)nc(C#Cc4ccc(CCC(=O)O)cc4)nc32)[C@H](O)[C@@H]1O` (stereo not given in full), for which the EC50 at Adenosine receptor A1 [4] is more than 10000 nM; at Adenosine receptor A2a [1], 0.008 nM. The inhibition constant Ki on Adenosine receptor A1 [5] and at Adenosine receptor A2a [3] was more than 1000 nM throughout.
As to `CCNC(=O)[C@H]1OC(n2cnc3c(N)nc(C#Cc4ccc(CC#N)cc4)nc32)[C@H](O)[C@@H]1O` (stereo not given in full), the 50% effective concentration (EC50) at Adenosine receptor A1 [4] was more than 10000 nM; on Adenosine receptor A2a [1], 6520 nM. Further, the values for the Ki at Adenosine receptor A1 [5] and at Adenosine receptor A2a [3] were 1600 nM and 54.8 nM, respectively. Moreover, in data set [2], the “k'” value stood at 0.76.
In the same order, the values of `CCNC(=O)[C@H]1OC(n2cnc3c(N)nc(C#Cc4ccc(CCC(=O)OC(C)(C)C)cc4)nc32)[C@H](O)[C@@H]1O` (stereo not given in full) are more than 10000 nM, 1350 nM, more than 10000 nM, 743 nM and 2.28.
In the same order, the values of `CCNC(=O)[C@H]1OC(n2cnc3c(N)nc(C#Cc4ccc(C)cc4)nc32)[C@H](O)[C@@H]1O` (stereo not given in full) are 8530 nM, 3290 nM, 500 nM, 36.3 nM and 3.59.
On to `CCNC(=O)[C@H]1OC(n2cnc3c(N)nc(C#CCCc4ccccc4)nc32)[C@H](O)[C@@H]1O` (stereo not given in full), for which the results for the EC50 on Adenosine receptor A1 [4] and on Adenosine receptor A2a [1] were more than 10000 nM and 210 nM, respectively. Moreover, the Ki at Adenosine receptor A1 [5] stood at 448 nM; on Adenosine receptor A2a [3], 7 nM. In addition, in data set [2], the “k'” value is reported as 3.16.
Regarding `CCNC(=O)[C@H]1OC(n2cnc3c(N)nc(C#Cc4ccc(F)cc4)nc32)[C@H](O)[C@@H]1O` (stereo not given in full), the EC50 at Adenosine receptor A1 [4] and at Adenosine receptor A2a [1] was more than 10000 nM throughout. Also, the results for the Ki on Adenosine receptor A1 [5] and on Adenosine receptor A2a [3] were 3310 nM and 81.4 nM, respectively. Further, the “k'” value in data set [2] is 2.33.
Regarding `CCNC(=O)[C@H]1OC(n2cnc3c(N)nc(C#Cc4ccc(C(N)=O)cc4)nc32)[C@H](O)[C@@H]1O` (stereo not given in full), the EC50 at Adenosine receptor A1 [4] is more than 10000 nM; at Adenosine receptor A2a [1], 6420 nM. The Ki on Adenosine receptor A1 [5] amounted to 7500 nM; on Adenosine receptor A2a [3], 1500 nM. In data set [2], the “k'” value stood at 0.32.
In the same order, the values of `CCNC(=O)[C@H]1OC(n2cnc3c(N)nc(C#Cc4ccccn4)nc32)[C@H](O)[C@@H]1O` (stereo not given in full) are 840 nM, 243 nM, 114 nM, 89.8 nM and 0.49.
With `CCNC(=O)[C@H]1O[C@@H](n2cnc3c(N)nc(NCCc4ccc(CCC(=O)O)cc4)nc32)[C@H](O)[C@@H]1O` [CGS-21680], the “k'” value in data set [2] was found to be 0.24.
Still for that read-out and setting: under `CCNC(=O)[C@H]1O[C@@H](n2cnc3c(N)ncnc32)[C@H](O)[C@@H]1O` [NECA] stands 0.19.
